Test [1] has as its target T1, serotonin (5-HTT) reuptake site (Rattus norvegicus, UniProt P31652).
T1 construct: from tissue; host or cells: rat frontal cortex membranes
In words: Affinity for serotonin reuptake sites in the rat ([3H]-citalopram competition). The conditions noted are these: rat frontal cortex membranes, read-out: pKi r5-HTT (converted). It counts as binding. How it is done:
The cortices are homogenised using a Polytron in 40 volumes (weight/volume) of cold Tris-HCl (50 mM, pH 7.4) incubation buffer containing 120 mM NaCl and 5 mM KCl and are then centrifuged for a first time. The sediment is resuspended in the same buffer, incubated for 10 minutes at 37° C. and then re-centrifuged. The membranes are washed a further two times and the sediment is then resuspended in an appropriate volume of incubation buffer. […] Non-specific binding is determined with 10 μM fluoxetine. At the end of the incubation period, the samples are filtered through Unifilter GF/B type filters pretreated with PEI (0.5%) and washed several times with the incubation buffer. The radioactivity retained on the filters is counted after addition of scintillation liquid, with the aid of a scintillation counter. […] The results are expressed as pKi=−log Ki.

For test [2], the target named is T2, human NK1 receptors (Homo sapiens, UniProt P25103).
T2 construct: IM9 human lymphoblast cells endogenously expressing NK1 receptors; endogenous in cells; host or cells: IM9 human lymphoblast cells
T2 sequence (P25103 whole entry): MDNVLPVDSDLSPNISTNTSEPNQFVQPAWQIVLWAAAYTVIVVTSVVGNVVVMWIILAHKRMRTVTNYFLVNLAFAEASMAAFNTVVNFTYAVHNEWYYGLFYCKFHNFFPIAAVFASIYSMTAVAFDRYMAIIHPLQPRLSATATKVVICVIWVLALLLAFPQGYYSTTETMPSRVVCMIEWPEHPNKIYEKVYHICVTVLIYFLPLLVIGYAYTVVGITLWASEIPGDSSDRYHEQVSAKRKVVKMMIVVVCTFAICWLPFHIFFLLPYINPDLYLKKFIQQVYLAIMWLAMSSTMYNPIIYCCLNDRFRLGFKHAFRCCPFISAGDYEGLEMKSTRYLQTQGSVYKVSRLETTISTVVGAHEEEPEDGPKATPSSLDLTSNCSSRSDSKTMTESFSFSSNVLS
The experiment in a line: hNK1 binding ([3H]-Substance P competition on IM9 human lymphoblast cells). The conditions noted are these: read-out: pKi NK1 (converted). How it is done: IM9 human lymphoblast cells endogenously expressing NK1 receptors are centrifuged and taken up in the incubation buffer containing 50 mM TRIS, 150 mM NaCl, 4 mM CaCl2, protease inhibitors at 1/100^e (Cocktail SIGMA P8340) and 0.2% BSA. The volume of incubation buffer is determined so as to obtain a concentration of 5×10^6 cells/ml. […] Non-specific binding is determined in the presence of 1 μM GR 205171.
At the end of the incubation period, the samples ate filtered through Unifilter GF/B type filters pretreated with PEI (0.1%) and washed several times with the filtration buffer ([…], 150 mM NaCl, 4 mM CaCl2). The radioactivity retained on the filters is measured by counting after addition of scintillation liquid to the filters. The counts are […] analysed by non-linear regression, allowing the isotherms to be plotted and the IC50 values to be determined. […] The results are expressed as pKi (−log Ki).

Where a name gives a salt, the structure may show the parent alone.

T1 sequence (P31652 whole entry): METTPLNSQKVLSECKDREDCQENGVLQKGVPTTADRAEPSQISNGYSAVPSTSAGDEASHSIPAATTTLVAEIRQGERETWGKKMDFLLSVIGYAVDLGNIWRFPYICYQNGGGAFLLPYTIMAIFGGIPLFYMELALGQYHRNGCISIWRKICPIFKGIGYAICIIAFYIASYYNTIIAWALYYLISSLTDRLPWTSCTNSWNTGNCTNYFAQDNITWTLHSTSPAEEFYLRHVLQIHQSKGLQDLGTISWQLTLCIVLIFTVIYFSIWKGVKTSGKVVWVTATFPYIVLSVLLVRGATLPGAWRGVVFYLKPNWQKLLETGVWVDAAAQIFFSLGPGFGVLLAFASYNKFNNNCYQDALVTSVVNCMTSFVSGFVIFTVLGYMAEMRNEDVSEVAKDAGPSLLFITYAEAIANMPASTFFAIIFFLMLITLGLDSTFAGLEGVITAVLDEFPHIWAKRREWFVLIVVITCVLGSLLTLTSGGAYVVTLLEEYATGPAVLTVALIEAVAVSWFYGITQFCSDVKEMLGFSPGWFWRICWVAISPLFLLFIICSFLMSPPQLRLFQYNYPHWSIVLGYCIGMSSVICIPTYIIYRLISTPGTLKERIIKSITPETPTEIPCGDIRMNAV

As for `Brc1cc(Br)cc(COCC2(N3CCNCC3)CCc3ccccc32)c1` (racemic) [Example 1, 1-[(1RS)-1-(3,5Dibromobenzyloxymethyl)indan-1-yl]piperazine dihydrochloride], the Ki is 245 nM in test [1] and 3.39 nM in test [2].

With `Cc1cc(C)cc(COCC2(N3CCNCC3)CCc3ccccc32)c1` (racemic) [Example 2, 1-[(1RS)-1-(3,5-Dimethylbenzyloxymethyl)indan-1-yl]piperazine dihydrochloride], the Ki in test [1] is 53.7 nM; in test [2], 18.2 nM.

On to `CN(Cc1ccccc1)C(=O)C1(N2CCNCC2)CCc2ccccc21` (racemic) [Example 11, (1RS)-N-Benzyl-N-methyl-1-(1-piperazinyl)-1-indancarboxamide dihydrochloride], for which, in test [2], the Ki is 490 nM.

For the compound `CN(Cc1cc(F)cc(F)c1)C(=O)C1(N2CCNCC2)CCc2ccccc21` (racemic) [Example 68, (1RS)-N-(3,5Difluorobenzyl)-N-methyl-1-(1-piperazinyl)-1-indan-carboxamide dihydrochloride], the Ki in test [1] is 33.9 nM.

For `CN(Cc1cc(F)cc(C(F)(F)F)c1)C(=O)C1(N2CCNCC2)CCc2ccccc21` (racemic) [Example 69, (1RS)-N-[3-Fluoro-5(trifluoromethyl)benzyl]-N-methyl-1-(1-piperazinyl)-1-indancarboxamide dihydrochloride], in test [1], the Ki was 151 nM.

Regarding `Fc1cc(F)cc(COCC2(N3CCNCC3)CCc3ccccc32)c1` (racemic) [Example 70, (1RS)-1-[1-(3,5Difluorobenzyloxymethyl)indan-1-yl]piperazine dihydrochloride], the Ki in test [1] was 3.24 nM.

For the compound `CN(Cc1cc(Cl)cc(Cl)c1)C(=O)C1(N2CCNCC2)CCc2ccccc21` (racemic) [Example 85, (1RS)-N-(3,5-Dichlorobenzyl)-N-methyl-1-(1-piperazinyl)-1-indan-carboxamide dihydrochloride], in test [1], the Ki is 93.3 nM.

On to `Cc1cc(C)cc(COCC2(N3CCNCC3)Cc3ccccc3C2)c1` [Example 3, 1-[2-(3,5-Dimethylbenzyloxymethyl)indan-2-yl]piperazine dihydrochloride], for which the figures for the Ki in test [1] and in test [2] were 63.1 nM and 162 nM, respectively.

Consider `O=C(NCc1cc(C(F)(F)F)cc(C(F)(F)F)c1)C1(N2CCNCC2)Cc2ccccc2C1` [Example 5, N-[3,5-Bis(trifluoromethyl)benzyl]-2-(1-piperazinyl)-2-indan-carboxamide dihydrochloride], for which, in test [2], the Ki is 398 nM.

In the case of `CN(Cc1cc(Cl)cc(Cl)c1)CC1(N2CCNCC2)Cc2ccccc2C1` [Example 79, N-(3,5-Dichlorobenzyl)N-methyl-[2-(1-piperazinyl)indan-2-yl]-methanamine trihydrochloride], the Ki in test [2] is 513 nM.

On to `CN(Cc1cc(F)cc(Cl)c1)C(=O)C1(N2CCNCC2)Cc2ccccc2C1` [Example 135, N-(3-Chloro-5-fluorobenzyl)-N-methyl-2-(1-piperazinyl)-2-indan-carboxamide dihydrochloride], for which the Ki in test [1] is 43.7 nM.

(Values after patent US7442692B2, “Indanyl-piperazine compounds” (Les Laboratoires Servier, priority 2005, dated 2008).)
